Measurements: article PMC12478587
Each block holds one molecule with its values, some of them ahead of it.

What was measured:
[1] = test system: FTC_1_EAB (FTC_1_5'trunc19_3'trunc25), unlabelled (DNA, aptamer) CTGAGTCGTTGGCAAGGTATTGAGAGAG; experiment: ITC; settings: Na+ (PBS), Mg2+ 2 mM, 25 °C, 20 µM aptamer in cell; for binding: 200 µM compound in syringe
[2] = test system: FTC_1_Full (DNA, aptamer) GGAGGCTCTCGGGACGACGCTGAGTCGTTGGCAAGGTATTGAGAGAGTGTCGTCCCGATGCTGCAATCGTAA; experiment: ITC; settings: Na+ (PBS), Mg2+ 2 mM, 25 °C, 20 µM aptamer in cell; for binding: 200 µM compound in syringe
[3] = test system: FTC_1_EAB, E-AB sensor (DNA, aptamer) CTGAGTCGTTGGCAAGGTATTGAGAGAG; experiment: electrochemical aptamer-based sensor (square wave voltammetry); settings: for binding: negligible signal 100 nM to 10 µM
[4] = test system: FTC_5_Full (DNA, aptamer) GGAGGCTCTCGGGACGACGGCAAGTCGTTGGTAAGGTATTAATCTGGTGTCGTCCCGATGCTGCAATCGTAA; experiment: ITC; settings: Na+ (PBS), Mg2+ 2 mM, 25 °C, 20 µM aptamer in cell, 200 µM FTC in syringe
[5] = test system: FTC_1_Fluor (FTC_1_5'trunc3_3'trunc14) (DNA, aptamer) GGCTCTCGGGACGACGCTGAGTCGTTGGCAAGGTATTGAGAGAGTGTCGTCCCGA; experiment: fluorescence, quencher strand displacement; settings: Na+ (PBS), Mg2+ about 1 mM; 50% human plasma; Q-Cap_1 (3'-BHQ2) displaced; 100 nM aptamer, 150 nM Q-Cap_1; apparent
[6] = test system: FTC_1_EAB_Scramble (DNA, other) GATATGGGAGAACGCATTGCGTGGTATG; experiment: not stated (ITC series, Figure S7)
[7] = test system: FTC_2_Full (DNA, aptamer) GGAGGCTCTCGGGACGACCATGAGTCGTTGGTAAGGTATTAGGAAGCGGTCGTCCCGATGCTGCAATCGTAA; experiment: ITC; settings: Na+ (PBS), Mg2+ 2 mM, 25 °C, 20 µM aptamer in cell, 200 µM FTC in syringe
[8] = target: bovine serum albumin (BSA) (UniProt P02769 25-607); experiment: ITC; heat change at mole ratios <0.1; BSA as ligand; ITC: PBS + 2 mM MgCl2 (SELEX buffer pH 7.2); general ITC protocol 20 uM aptamer in cell, 200 uM target in syringe; temperature not given; settings: protein: commercial; stem-loop, stem S1 13 bp
bovine serum albumin (BSA), sequence (P02769 25-607): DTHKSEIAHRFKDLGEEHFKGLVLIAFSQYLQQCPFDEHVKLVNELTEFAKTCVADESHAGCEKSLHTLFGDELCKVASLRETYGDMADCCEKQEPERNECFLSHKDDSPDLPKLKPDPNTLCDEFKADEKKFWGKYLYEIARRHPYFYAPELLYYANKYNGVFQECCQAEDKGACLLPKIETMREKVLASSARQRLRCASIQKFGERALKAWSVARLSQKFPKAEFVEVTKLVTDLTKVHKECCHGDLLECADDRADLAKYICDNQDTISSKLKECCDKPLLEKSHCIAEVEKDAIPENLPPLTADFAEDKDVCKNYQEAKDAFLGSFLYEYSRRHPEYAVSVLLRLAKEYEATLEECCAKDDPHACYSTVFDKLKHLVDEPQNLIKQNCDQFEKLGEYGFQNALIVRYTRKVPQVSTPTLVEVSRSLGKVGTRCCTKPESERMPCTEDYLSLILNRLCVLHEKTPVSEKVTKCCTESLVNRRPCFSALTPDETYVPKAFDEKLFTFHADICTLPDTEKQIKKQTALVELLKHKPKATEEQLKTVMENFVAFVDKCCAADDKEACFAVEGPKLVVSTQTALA

Molecule: Nc1ccn([C@@H]2CS[C@H](CO)O2)c(=O)n1
binding ([3]; binding above 10 µM, gain 50% lower than FTC): weak

Molecule: Nc1nc(=O)n([C@@H]2CS[C@H](CO)O2)cc1F
Kd ([1]; 200 µM FTC in syringe): 10.9 ± 0.3 µM
EC50 ([3]; Na+ (PBS), phosphate-buffered saline, gold electrode, Hill coefficient 1, apparent): 10.4 ± 0.6 µM
binding [4]: yes
dissociation constant ([2]; 200 µM FTC in syringe): 150 ± 40 nM
EC50 [5]: 3.536 ± 0.069 µM
binding [6]: no
binding [7]: yes

Molecule: Nc1nc(=O)n([C@@H]2CS[C@H](COP(=O)(O)OP(=O)(O)OP(=O)(O)O)O2)cc1F
binding ([3]; minimal binding at saturation): weak
binding [2]: no

Molecule: Nc1nc(=O)n([C@@H]2O[C@H](CO)[C@@H](O)[C@H]2O)cc1F
binding [1]: no
binding [2]: no

B1: FTC_1 (taken as FTC_1_Full) (structured_DNA)
DNA: GGAGGCTCTCGGGACGACGCTGAGTCGTTGGCAAGGTATTGAGAGAGTGTCGTCCCGATGCTGCAATCGTAA
binding result [8]: binds

Results, then the molecule that gave them:

binding [1]: no
binding [2]: no
Molecule: Nc1cc[nH]c(=O)n1

binding [1]: no
binding [2]: no
Molecule: Nc1ccn([C@@H]2O[C@H](CO)[C@@H](O)[C@H]2O)c(=O)n1
